Key:
[1] = Primary screening of photostability of the CyNA library (time-course fluorescence, 8 h); format: physicochemical; set-up: F/Fo, fluorescent intensity at 8 hours vs 0 hours: unit: %; details: 10 μM in HEPES 100 mM pH 7.4, 2% DMSO
Experimental: As a primary evaluation of photo stability, the decrease in fluorescence intensity of the 80 CyNA compounds was measured (see Table 2). The average decrease in fluorescence intensity after 8 hours of irradiation by a xenon lamp was approximately 18%. A subset of the most photostable compounds (i.e., F/Fo reported in Table 2 was greater than or equal to 95) was examined under stronger irradiation in various buffers.
10-μM CyNA solutions in 100 mM HEPES buffer (pH 7.4) containing 2% DMSO were placed in a 96-well black plate, and fluorescence intensity measurements were recorded every 10 minutes for a total period of 8 hours (excitation-emission: 790-820 nm). A subset of fourteen compounds selected according to their F8h/Fo quotients, quantum yields and maximum relative fluorescence units (RFU) values was further evaluated in a secondary screening

[2] = Absorbance and fluorescence maximum wavelengths and quantum yields of the CyNA library; format: physicochemical; details: for λabs, absorbance maximum wavelength / λem, fluorescence maximum wavelength: CyNA library; for φ, quantum yield: in DMSO, Cardiogreen as standard
Experimental: Since the k values of the different CyNA compounds indicated some dependency on the chemical structure of the amine, the CyNA scaffold was derivatized with a broad range of primary amines (FIGS. 4A-4C). The fluorescence properties of the 80-member CyNA library were measured. The absorption maximum wavelengths ranged from 802 nm to 806 nm, emission maximum wavelengths ranged from 817 nm to 823 nm, and the average quantum yield was approximately 0.10 (Table 2).
All the chemicals (building block amines plus others) and solvents were purchased from Sigma Aldrich, Alfa Aesar, Fluka, MERCK or Acros, and used without further purification. ^1H-NMR and ^13C-NMR spectra were recorded on Bruker Avance 300 NMR and 500 NMR spectrometers, and chemical shifts are expressed in parts per million (ppm). High-resolution mass spectrometry (HRMS) data was recorded on a Micromass VG 7035. Photobleaching experiments were performed using a UVP Blak-Ray® B-100AP high intensity UV lamp (100 W, 365 nm) Spectroscopic and quantum yield data were measured on a SpectraMax M2 spectrophotometer (Molecular Devices), and the data analysis was performed using GraphPrism 5.0. Photobleaching measurements were performed using an Eclipse Ti-U Nikon microscope (filter cube: 750/800) attached to Ti:sappire oscillator that operated in continuous wave mode, and the data was processed using the software NIS-Elements 3.10. In vivo images were taken in an IVIS Spectrum imaging system (Caliper Life Sciences).

Row | Structure (SMILES) | F/Fo, fluorescent intensity at 8 hours vs 0 hours [1] | max RFU, maximum relative fluorescence units [1] | λabs, absorbance maximum wavelength [2] | λem, fluorescence maximum wavelength [2] | φ, quantum yield [2]
1 | CCCN1/C(=C/C=C2\CCCC(/C=C/C3=[N+](CCC)c4ccccc4C3(C)C)=C2N(CCCc2ccccc2)C(C)=O)C(C)(C)c2ccccc21 [CyNA-335] | 50 | 167.9 | 804 nm | 821 nm | 0.06
2 | CCCN1/C(=C/C=C2\CCCC(/C=C/C3=[N+](CCC)c4ccccc4C3(C)C)=C2N(Cc2cccc(Br)c2)C(C)=O)C(C)(C)c2ccccc21 [CyNA-341] | 100 | 259.2 | 805 nm | 822 nm | 0.10
3 | CCCCC(CC)CN(C(C)=O)C1=C(/C=C/C2=[N+](CCC)c3ccccc3C2(C)C)CCC/C1=C\C=C1\N(CCC)c2ccccc2C1(C)C (stereo not shown) [CyNA-230] | 80 | 77.7 | 805 nm | 822 nm | 0.09
4 | CCCN1/C(=C/C=C2\CCCC(/C=C/C3=[N+](CCC)c4ccccc4C3(C)C)=C2N(CCCN2CCCC2=O)C(C)=O)C(C)(C)c2ccccc21 [CyNA-11] | 90 | 1250.1 | 802 nm | 820 nm | 0.11
5 | CCCN1/C(=C/C=C2\CCCC(/C=C/C3=[N+](CCC)c4ccccc4C3(C)C)=C2N(Cc2ccc(Cl)c(Cl)c2)C(C)=O)C(C)(C)c2ccccc21 [CyNA-565] | 96 | 335.5 | 805 nm | 821 nm | 0.09
6 | CCCN1/C(=C/C=C2\CCCC(/C=C/C3=[N+](CCC)c4ccccc4C3(C)C)=C2N(Cc2ccc3c(c2)OCO3)C(C)=O)C(C)(C)c2ccccc21 [CyNA-49] | 95 | 851.3 | 804 nm | 818 nm | 0.10
7 | CCCN1/C(=C/C=C2\CCCC(/C=C/C3=[N+](CCC)c4ccccc4C3(C)C)=C2N(Cc2ccccc2Cl)C(C)=O)C(C)(C)c2ccccc21 [CyNA-364] | 98 | 264.8 | 804 nm | 821 nm | 0.05
8 | CCCN1/C(=C/C=C2\CCCC(/C=C/C3=[N+](CCC)c4ccccc4C3(C)C)=C2N(Cc2ccc(OC)c(OC)c2)C(C)=O)C(C)(C)c2ccccc21 [CyNA-319] | 67 | 578.6 | 805 nm | 820 nm | 0.06
9 | CCCCCN(C(C)=O)C1=C(/C=C/C2=[N+](CCC)c3ccccc3C2(C)C)CCC/C1=C\C=C1\N(CCC)c2ccccc2C1(C)C [CyNA-419] | 91 | 835.2 | 804 nm | 820 nm | 0.13
10 | CCCN1/C(=C/C=C2\CCCC(/C=C/C3=[N+](CCC)c4ccccc4C3(C)C)=C2N(C(C)=O)C2CCCCCCC2)C(C)(C)c2ccccc21 [CyNA-219] | 65 | 902.7 | 804 nm | 822 nm | 0.14
11 | CCCCCCCCCCCCCN(C(C)=O)C1=C(/C=C/C2=[N+](CCC)c3ccccc3C2(C)C)CCC/C1=C\C=C1\N(CCC)c2ccccc2C1(C)C [CyNA-55] | 100 | 162.3 | 804 nm | 819 nm | 0.13
12 | CCCCCCCCCCN(C(C)=O)C1=C(/C=C/C2=[N+](CCC)c3ccccc3C2(C)C)CCC/C1=C\C=C1\N(CCC)c2ccccc2C1(C)C [CyNA-407] | – | 22.5 | 805 nm | 820 nm | 0.08
13 | CCCN1/C(=C/C=C2\CCCC(/C=C/C3=[N+](CCC)c4ccccc4C3(C)C)=C2N(Cc2cc(OC)cc(OC)c2)C(C)=O)C(C)(C)c2ccccc21 [CyNA-262] | 81 | 816.5 | 803 nm | 822 nm | 0.10
14 | CCCN1/C(=C/C=C2\CCCC(/C=C/C3=[N+](CCC)c4ccccc4C3(C)C)=C2N(Cc2cccc3ccccc23)C(C)=O)C(C)(C)c2ccccc21 [CyNA-542] | 74 | 442.7 | 805 nm | 821 nm | 0.08
15 | CCCN1/C(=C/C=C2\CCCC(/C=C/C3=[N+](CCC)c4ccccc4C3(C)C)=C2N(CC(C)CC)C(C)=O)C(C)(C)c2ccccc21 (stereo not shown) [CyNA-574] | 38 | 321.1 | 803 nm | 818 nm | 0.06
16 | CCCN1/C(=C/C=C2\CCCC(/C=C/C3=[N+](CCC)c4ccccc4C3(C)C)=C2N(CCc2ccccc2Cl)C(C)=O)C(C)(C)c2ccccc21 [CyNA-480] | 51 | 154.8 | 803 nm | 817 nm | 0.06
17 | CCCN1/C(=C/C=C2\CCCC(/C=C/C3=[N+](CCC)c4ccccc4C3(C)C)=C2N(Cc2ccc(F)cc2)C(C)=O)C(C)(C)c2ccccc21 [CyNA-218] | 85 | 549.9 | 802 nm | 823 nm | 0.08
18 | CCCN1/C(=C/C=C2\CCCC(/C=C/C3=[N+](CCC)c4ccccc4C3(C)C)=C2N(CCc2ccccc2F)C(C)=O)C(C)(C)c2ccccc21 [CyNA-477] | – | 169.8 | 805 nm | 819 nm | 0.09
19 | CCCN1/C(=C/C=C2\CCCC(/C=C/C3=[N+](CCC)c4ccccc4C3(C)C)=C2N(CCC(C)C)C(C)=O)C(C)(C)c2ccccc21 [CyNA-442] | 54 | 424.2 | 806 nm | 822 nm | 0.07
20 | CCCN1/C(=C/C=C2\CCCC(/C=C/C3=[N+](CCC)c4ccccc4C3(C)C)=C2N(C(C)=O)C2CCCC2)C(C)(C)c2ccccc21 [CyNA-180] | 91 | 991.3 | 805 nm | 821 nm | 0.14
21 | CCCN1/C(=C/C=C2\CCCC(/C=C/C3=[N+](CCC)c4ccccc4C3(C)C)=C2N(Cc2ccc(OC)cc2OC)C(C)=O)C(C)(C)c2ccccc21 [CyNA-358] | 100 | 487.4 | 805 nm | 819 nm | 0.14
22 | CCCN1/C(=C/C=C2\CCCC(/C=C/C3=[N+](CCC)c4ccccc4C3(C)C)=C2N(Cc2ccco2)C(C)=O)C(C)(C)c2ccccc21 [CyNA-446] | 85 | 709.2 | 804 nm | 821 nm | 0.08
23 | CCCN1/C(=C/C=C2\CCCC(/C=C/C3=[N+](CCC)c4ccccc4C3(C)C)=C2N(Cc2cccc(Cl)c2)C(C)=O)C(C)(C)c2ccccc21 [CyNA-403] | 45 | 261.6 | 805 nm | 819 nm | 0.05
24 | CCCN1/C(=C/C=C2\CCCC(/C=C/C3=[N+](CCC)c4ccccc4C3(C)C)=C2N(CCC(C)(C)C)C(C)=O)C(C)(C)c2ccccc21 [CyNA-92] | 64 | 420.2 | 805 nm | 821 nm | 0.09
